Data published in patent US12077741B2, “Crosslinked hydrogel compositions for regulating states of encapsulated cancer cells” (University Of Delaware, priority 2017, dated 2024).
Read-outs that look alike come from different tables or passages of the source.

What was measured:
Assay type in all cases: cell-based
[1] = test system: MDA-MB-231 cells; assay: Drug response, 2D controls on tissue culture plastic; conditions: for EC50 / IC50: 2D culture
Protocol: MDA-MB-231 cells were trypsinized, counted, and seeded in a fibronectin coated (10 μg/mL), 96 well plate at a density of 5,000 cells/well in serum-containing medium. To measure the drug response of cells independent of encapsulation, pre-encapsulation conditions were replicated by allowing the cells to adhere overnight followed by culture in serum-free medium for 48 hr. DOX, PAC, and 5-FU were reconstituted in DMSO to a stock concentration of 172.4, 58.5, and 384.6 mM, respectively. Stock solutions were diluted in medium to a range of concentrations: DOX (0.001, 0.01, 0.1, 1, 10, 100, or 1000 μM), PAC (0.001, 0.01, 0.1, 1, 10, or 100 μM), and 5-FU (0.001, 0.01, 0.1, 1, 10, 100, or 1000 μM) and added to the MDA-MB-231 cells for 48 hr (n=6 wells per concentration). 46 At the highest drug concentration tested, the DMSO concentration remained […]; thus, 0.1% (v/v) DMSO was used as a vehicle control in 2D studies. Cells were rinsed in PBS twice to remove excess medium, followed by labeling with a Live/Dead® cell viability kit (Invitrogen). Only live cells were labeled, as dead cells detached from the wells and were washed away. Labeled cells were imaged using the proper filter cubes and analyzed using FIJI software (NIH).
(§1) For statistical comparison between viability values, distribution normality was assessed via quantification of skewness and kurtosis, where values within ±2 indicated a normal distribution. Equal variance among groups was additionally evaluated. A one-way analysis of variance (ANOVA) with a post-hoc Tukey-Kramer test was implemented to determine statistical significance between multiple groups. Unless otherwise Indicated, p<0.05 was considered statistically significant. Origin Lab software was used to fit DOX viability data. A nonlinear, growth/sigmoidal curve fit using a dose response function with a Levenberg Marquardt iteration algorithm was performed and allowed to converge for all conditions with a chi-square tolerance of 1E-9.
The response of MDA-MB-231 cells cultured on standard tissue culture plastic (2D) to DOX, PAC, and 5-FU was quantified as control. MDA-MB-231 cells were cultured on 96 well plates and serum-starved for 48 hr, following the same protocol used for encapsulation for ease of comparison. The MDA-MB-231 cells were exposed to drug-containing medium at the following concentrations (DOX: 0.001, 0.01, 0.1, 1, 10, 100, or 1000 μM; PAC: 0.001, 0.01, 0.1, 1, 10, or 100 μM; and 5-FU: 0.001, 0.01, 0.1, 1, 10, 100, or 1000 μM) for 48 hr. The live MDA-MB-231 cells were fluorescently labeled, imaged, and quantified (FIG. 1).

[2] = test system: MDA-MB-231 cells; assay: Drug response, cells cultured in hydrogels; set-up: viability, times higher in cellular dormancy than growth state: dose or concentration left out as unconfirmed; conditions: for EC50 / IC50 / viability at 50 µM / viability at 550 µM / viability at 10 µM / viability at 1000 µM / viability at 100 µM / viability at 4000 µM / viability at 7000 µM / viability at 10000 µM: Homo sapiens; for viability at 50 µM: 0.05 mM; for viability at 50 µM / viability at 550 µM / viability at 10 µM / viability at 1000 µM / viability at 100 µM / viability at 4000 µM / viability at 7000 µM / viability at 10000 µM: read-out: cell viability (normalized to vehicle control); for viability at 550 µM: 0.55 mM; for viability at 10 µM: 0.01 mM; for viability at 100 µM: 0.10 mM; for viability at 4000 µM: 4 mM; for viability at 7000 µM: 7 mM; for viability at 10000 µM: 10 mM
Protocol: DOX, PAC, and 5-FU stocks were diluted in medium to desired concentrations: DOX (0.001, 0.01, 0.05, 0.1, 0.55, 1, or 2 mM), PAC (0.05, 0.1, 0.55, or 1 mM), and 5-FU (1.0, 4.0, 7.0, or 10 mM).
At the highest concentrations tested, the DMSO concentration ranged between 1-2% (v/v) for all drugs used. […] Thus, all vehicle controls used in this study contained medium with 1% (v/v) DMSO. […] 15 days post encapsulation, cell-laden hydrogels were rinsed with PBS and transferred to a new well plate for drug exposure for 48 hr. The hydrogels were rinsed twice with PBS to remove excess medium, followed by labeling with a Live/Dead® cell viability kit (Invitrogen) in PBS for 30 min, according to the manufacturer's instructions. The hydrogels were rinsed with PBS for 10 min to remove excess stain. Labeled hydrogels were placed on coverslips and imaged using structured Illumination on a Zeiss AxioObserver Z1 inverted fluorescent microscope as previously described. 32-34 Fluorescent z-stacks (z-height: 150 μm) were acquired approximately at the center of the hydrogels, between the bottom and top surfaces of each sample, and analyzed using FIJI software (NIH). Due to the red autofluorescence of DOX, only the live cells were imaged for viability studies. To quantify cell viability, the number of live cells was normalized to the number of live cells measured in the vehicle control. A minimum of 6 hydrogels were analyzed for each condition.
as §1

[3] = test system: MDA-MB-231 cells; assay: Doxorubicin accumulation and nuclear localization; conditions: for nuclear to cytoplasmic (N/C) ratio: 48 hr
Protocol: Cells were encapsulated in hydrogel formulations that induced growth, balanced dormancy, or cellular dormancy for 15 days as described above. The medium was replaced with DOX-containing medium at a concentration of 0.05 mM. Four hydrogels for each formulation were imaged at varying time points (1, 2, 3, 5, 12, 20, 24, 48 hr). The mean cellular fluorescence intensity was measured and plotted against time to quantify intracellular DOX accumulation. To calculate the nuclear to cytoplasmic ratio, the fluorescence intensity measurements of the cytoplasmic and nuclear regions were acquired for each cell, with at least 70 cells measured per image. Due to its mechanism of action, DOX is known to primarily localize to the nucleus of DOX-sensitive cell lines. Studies quantifying DOX localization in multiple cell lines show alignment between high fluorescence intensity and the nucleus. Additionally, nuclear location was approximated based on areas of high fluorescence intensity with distinct morphological features (size, location).

[4] = Homo sapiens, MDA-MB-231, 48 hr
[5] = Homo sapiens, MDA-MB-231, 2D, 48 hr, read-out: cell viability
[6] = MDA-MB-231, 48 h, balanced dormancy hydrogel, 48 hr
[7] = MDA-MB-231, 48 h, balanced dormancy, 48 hr
[8] = MDA-MB-231, 48 h, cellular dormancy hydrogel, 48 hr
[9] = MDA-MB-231, 48 h, cellular dormancy, 48 hr
[10] = MDA-MB-231, 48 h, growth state hydrogel, 48 hr
[11] = MDA-MB-231, 48 h, growth state, 48 hr
[12] = MDA-MB-231, range over the three hydrogel formulations

Structure (SMILES): COc1cccc2c1C(=O)c1c(O)c3c(c(O)c1C2=O)C[C@@](O)(C(=O)CO)C[C@@H]3O[C@H]1C[C@H](N)[C@H](O)[C@H](C)O1 [DOX, doxorubicin]
- EC50 ([1]; Homo sapiens, MDA-MB-231, 48 h): 0.006 µM
- IC50 [1, 4]: 0.007 µM
- viability at 100 µM [1, 5]: 1%
- fold increase in IC50, balanced dormancy vs growth state [2]: 1.3 fold
- fold increase in IC50, cellular dormancy vs growth state [2]: 1.8 fold
- viability, times higher in cellular dormancy than growth state ([2]; 0.55): 4-6 times
- EC50 [2, 6]: 67.6 µM
- IC50 [2, 6]: 58.3 µM
- viability at 50 µM [2, 7]: 57 ± 2%
- viability at 550 µM [2, 7]: 16 ± 1%
- EC50 [2, 8]: 83.3 µM
- IC50 [2, 8]: 79.9 µM
- viability at 10 µM [2, 9]: 91 ± 12%
- viability at 50 µM [2, 9]: 62 ± 5%
- viability at 550 µM [2, 9]: 24 ± 3%
- EC50 [2, 10]: 43.6 µM
- IC50 [2, 10]: 43.6 µM
- viability at 10 µM [2, 11]: 82 ± 1%
- viability at 50 µM [2, 11]: 44 ± 3%
- viability at 550 µM [2, 11]: 5 ± 1%
- EC50 [2, 12]: 47.4 to 83.3 µM
- IC50 [2, 12]: 43.6 to 79.9 µM
- fold decrease in nuclear localization, dormant vs growth state [3]: 1.5 fold
- intracellular accumulation (mean fluorescence intensity) between the three phenotypic states ([3]; 0.05 mM, over 48 hr): no statistically significant differences
- nuclear to cytoplasmic (N/C) ratio ([3]; balanced dormancy, 0.05 mM): 2.3±0.8
- nuclear to cytoplasmic (N/C) ratio ([3]; cellular dormancy, 0.05 mM): 2.4±1.0
- nuclear to cytoplasmic (N/C) ratio ([3]; growth state, 0.05 mM): 3.5±2.3

Structure (SMILES): C[S+](C)[O-] [DMSO, Dimethyl Sulfoxide]
- cell viability vs serum-containing medium ([2]; 1 or 2% (v/v), growth hydrogel formulation, 48 hr): no significant differences
- cytotoxicity ([2]; 18%, 26% (v/v)): cytotoxic

Structure (SMILES): CC(=O)O[C@H]1C(=O)[C@@]2(C)[C@H]([C@H](OC(=O)c3ccccc3)[C@]3(O)C[C@H](OC(=O)[C@H](O)[C@@H](NC(=O)c4ccccc4)c4ccccc4)C(C)=C1C3(C)C)[C@]1(OC(C)=O)CO[C@@H]1C[C@@H]2O [PAC, paclitaxel]
- EC50 ([1]; 48 hr): 0.761 µM
- EC50 ([1]; Homo sapiens, MDA-MB-231, 48 h): 0.716 µM
- IC50 [1, 4]: 0.651 µM
- viability at 0.01 µM ([1]; Homo sapiens, MDA-MB-231, 2D, 0.01 μM, 48 hr, read-out: cell viability): 94 ± 13%
- viability at 100 µM [1, 5]: 6 ± 2%
- viability at 550 µM [2, 7]: 86 ± 5%
- viability at 1000 µM ([2]; MDA-MB-231, 48 h, balanced dormancy, 1.00 mM, 48 hr): 72 ± 3%
- viability at 100 µM [2, 9]: 91 ± 6%
- viability at 550 µM [2, 9]: 84 ± 5%
- viability at 1000 µM ([2]; MDA-MB-231, 48 h, cellular dormancy, 1 mM, 48 hr): 75 ± 3%
- viability at 1000 µM ([2]; MDA-MB-231, 48 h, dormant cells (either state), 1 mM, 48 hr): > 72%
- viability at 100 µM [2, 11]: 55 ± 4%
- viability at 550 µM [2, 11]: 51 ± 4%
- viability at 1000 µM ([2]; MDA-MB-231, 48 h, growth state, 1 mM, 48 hr): 39 ± 4%

Structure (SMILES): O=c1[nH]cc(F)c(=O)[nH]1 [5-FU, 5-fluorouracil]
- EC50 ([1]; Homo sapiens, MDA-MB-231, 48 h): 1.81 µM
- viability at 1000 µM ([1]; Homo sapiens, MDA-MB-231, 2D, 1 mM, 48 hr, read-out: cell viability): 65 ± 3%
- viability at 4000 µM [2, 7]: 92 ± 4%
- viability at 7000 µM ([2]; MDA-MB-231, 48 h, both dormant states, 48 hr): > 90%
- viability at 4000 µM [2, 9]: 100 ± 6%
- viability at 10000 µM [2, 9]: 99 ± 4%
- viability at 10000 µM ([2]; MDA-MB-231, 48 h, either dormant state, 48 hr): > 93%
- viability at 7000 µM [2, 11]: 80 ± 2%
- viability at 10000 µM [2, 11]: 75 ± 5%
- cell viability (normalized to vehicle control) ([2]; dormant cells, all concentrations tested): > 90%
